The values below come from article PMC8286840, “Identifying SARS-CoV-2 antiviral compounds by screening for small molecule inhibitors of Nsp3 papain-like protease” (Biochemical Journal, 2021).

Each structure is given as a SMILES string. Counter-ions that a name gives are not always drawn. Like-named read-outs stand apart in the source and are kept apart here.

The target of assay [1] is T1, SARS-CoV-2 PLpro (nsp3 1564–1878) (Severe acute respiratory syndrome coronavirus 2, UniProt P0DTD1). The assay can be described thus: biochemical. More on the design: FRET-quenched peptide (Pro3) cleavage by PLpro, 10 min pre-incubation, slope over 20 min, normalised to no-compound control. The settings on record: read-out: % of control remaining.
In assay [2] the target is T1, SARS-CoV-2 PLpro (nsp3 1564–1878). The assay can be described thus: biochemical. Further details: FRET-quenched peptide (Pro3) cleavage by PLpro, 10 min pre-incubation, slope over 20 min, normalised to no-compound control. As to conditions: read-out: % of control remaining. The source holds these as a separate data set.

Consider `O=C(O)c1ccc(O)c2ncccc12` [IOX1], for which the remaining activity at 3.75 µM in assay [1] (Well no.=5529, high concentration screen) amounted to 104%. In assay [2] (Well no.=5529, low concentration screen), the remaining activity at 1.25 µM turned out to be 102%.
For the molecule `O=C(O)CNC(=O)c1c(O)c2ccccc2n(Cc2ccccc2)c1=O` [IOX2], in assay [1] (Well no.=5227, high concentration screen), the remaining activity at 3.75 µM turned out to be 95.1%. For the same molecule, the remaining activity at 1.25 µM in assay [2] (Well no.=5227, low concentration screen) amounted to 101%.
As for `O=[N+]([O-])c1ccc(CNc2nc(NCc3cccc(C(F)(F)F)c3)nc3nc[nH]c23)cc1` [IP3K Inhibitor], the remaining activity at 3.75 µM in assay [1] (Well no.=2477, high concentration screen) turned out to be 105%. The remaining activity at 1.25 µM in assay [2] (Well no.=2477, low concentration screen) was determined as 103%.
As for `C[C@H](Nc1ncnc2nc[nH]c12)c1cc2cccc(Cl)c2c(=O)n1-c1ccccc1` [IPI-145 (INK1197)], in assay [1] (Well no.=5170, high concentration screen), the remaining activity at 3.75 µM is 99.5%. Further, the remaining activity at 1.25 µM in assay [2] (Well no.=5170, low concentration screen) stood at 102%.
Take `CC1(C)CN2C(CSC(=NC3CCCCC3)NC3CCCCC3)=CSC2=N1` [IT1t (dihydrochloride)]: the remaining activity at 3.75 µM in assay [1] (Well no.=6942, high concentration screen) was found to be 93.3%; in assay [1] (Well no.=8463, high concentration screen) it was 106%. Moreover, the remaining activity at 1.25 µM in assay [2] (Well no.=6942, low concentration screen) was determined as 94.3%; in assay [2] (Well no.=8463, low concentration screen) it was 107%.
Turning to `CCN(CC)Cc1ccc2cc(COC(=O)Nc3ccc(C(=O)NO)cc3)ccc2c1` [ITF2357 (Givinostat)], in assay [1] (Well no.=5110, high concentration screen), the remaining activity at 3.75 µM was 106%. Further, in assay [2] (Well no.=5110, low concentration screen), the remaining activity at 1.25 µM worked out at 102%.
Take `CCCCCN(C)CCC(O)(P(=O)(O)O)P(=O)(O)O` [Ibandronate sodium salt]: the remaining activity at 3.75 µM in assay [1] (Well no.=6031, high concentration screen) was determined as 91.1%. In assay [2] (Well no.=6031, low concentration screen), the remaining activity at 1.25 µM was 96.1%.
For `CCCCCN(C)CCC(O)(P(=O)(O)O)P(=O)(O)O` [Ibandronate sodium], the remaining activity at 3.75 µM in assay [1] (Well no.=5363, high concentration screen) turned out to be 89.7%. In addition, the remaining activity at 1.25 µM in assay [2] (Well no.=5363, low concentration screen) stood at 90.7%.
For the molecule `CCCCCN(C)CCC(O)(P(=O)(O)O)P(=O)(O)O` [Ibandronate], the remaining activity at 3.75 µM in assay [1] (Well no.=1933, high concentration screen) was found to be 102%. Also, the remaining activity at 1.25 µM in assay [2] (Well no.=1933, low concentration screen) stood at 107%.
With `C[S+]([O-])CCCN=C=S` (stereo not drawn) [Iberin], the remaining activity at 3.75 µM in assay [1] stood at 90.7%. The remaining activity at 1.25 µM in assay [2] came to 95.3%.
For the molecule `CC(C)C(=O)c1c(C(C)C)nn2ccccc12` [Ibudilast], the remaining activity at 3.75 µM stood at 96.9% in assay [1] (Well no.=572, high concentration screen) and 90% in assay [1] (Well no.=1581, high concentration screen). The remaining activity at 1.25 µM in assay [2] (Well no.=572, low concentration screen) came out at 98.8%; in assay [2] (Well no.=1581, low concentration screen), 89.2%.
As to `CC(C)Cc1ccc(CC(=O)O)cc1` [Ibufenac], the remaining activity at 3.75 µM in assay [1] (Well no.=5479, high concentration screen) was determined as 109%. For the same molecule, the remaining activity at 1.25 µM in assay [2] (Well no.=5479, low concentration screen) was 105%.
With `CC(C)Cc1ccc(C(C)C(=O)O)cc1` (stereo not drawn) [Ibuprofen], the remaining activity at 3.75 µM in assay [1] (Well no.=1901, high concentration screen) amounted to 97%. Besides, the remaining activity at 1.25 µM in assay [2] (Well no.=1901, low concentration screen) was determined as 95.1%.
On to `CC(C)Cc1ccc(C(C)C(=O)NO)cc1` (stereo not drawn) [Ibuproxam], for which the remaining activity at 3.75 µM in assay [1] (Well no.=4091, high concentration screen) is 94.9%. For the same molecule, in assay [2] (Well no.=4091, low concentration screen), the remaining activity at 1.25 µM worked out at 95%.
With `CC(C)(N)C(=O)N[C@H](COCc1ccccc1)C(=O)N1CCC2(CC1)CN(S(C)(=O)=O)c1ccccc12` [Ibutamoren (Mesylate)], the remaining activity at 3.75 µM in assay [1] (Well no.=6186, high concentration screen) was 94.2%. Also, the remaining activity at 1.25 µM in assay [2] (Well no.=6186, low concentration screen) turned out to be 98.5%.
For `CCCCCCCN(CC)CCCC(O)c1ccc(NS(C)(=O)=O)cc1` (stereo not drawn) [Ibutilide fumarate], the remaining activity at 3.75 µM in assay [1] (Well no.=5096, high concentration screen) was 102%. Moreover, the remaining activity at 1.25 µM in assay [2] (Well no.=5096, low concentration screen) turned out to be 93.1%.
With `COc1ccc(-c2oc3c(CC=C(C)C)c(O[C@@H]4O[C@H](CO)[C@@H](O)[C@H](O)[C@H]4O)cc(O)c3c(=O)c2O[C@@H]2O[C@@H](C)[C@H](O)[C@@H](O)[C@H]2O)cc1` [Icariin], the remaining activity at 3.75 µM in assay [1] (Well no.=5200, high concentration screen) was determined as 100%. For the same molecule, the remaining activity at 1.25 µM in assay [2] (Well no.=5200, low concentration screen) amounted to 99.9%.
With `O=C1NC(c2cccc([N+](=O)[O-])c2)=CCN1c1ccccc1O` [Icilin], the remaining activity at 3.75 µM in assay [1] (Well no.=5682, high concentration screen) was 83.5%. Besides, the remaining activity at 1.25 µM in assay [2] (Well no.=5682, low concentration screen) was 83.3%.
For the molecule `C#Cc1cccc(Nc2ncnc3cc4c(cc23)OCCOCCOCCO4)c1` [Icotinib], in assay [1] (Well no.=5229, high concentration screen), the remaining activity at 3.75 µM turned out to be 88.7%. In assay [2] (Well no.=5229, low concentration screen), the remaining activity at 1.25 µM was 92.9%.
With `CC(=O)[C@]1(O)Cc2c(O)c3c(c(O)c2[C@@H](O[C@H]2C[C@H](N)[C@H](O)[C@H](C)O2)C1)C(=O)c1ccccc1C3=O` [Idarubicin], the remaining activity at 3.75 µM in assay [1] (Well no.=574, high concentration screen) stood at 102%; in assay [1] (Well no.=1613, high concentration screen), 103%. For the same molecule, the remaining activity at 1.25 µM in assay [2] (Well no.=574, low concentration screen) amounted to 103%; in assay [2] (Well no.=1613, low concentration screen) it was 102%.
With `COc1cc(C(=O)O)ccc1NC(=O)[C@@H]1N[C@@H](CC(C)(C)C)[C@](C#N)(c2ccc(Cl)cc2F)[C@H]1c1cccc(Cl)c1F` [Idasanutlin], the remaining activity at 3.75 µM in assay [1] (Well no.=7114, high concentration screen) amounted to 101%; in assay [1] (Well no.=7554, high concentration screen), 93.9%. Besides, the remaining activity at 1.25 µM amounted to 101% in assay [2] (Well no.=7114, low concentration screen) and 92.9% in assay [2] (Well no.=7554, low concentration screen).
In the case of `c1ccc2c(c1)OCC(C1=NCCN1)O2` (stereo not drawn) [Idazoxan hydrochloride], in assay [1] (Well no.=821, high concentration screen), the remaining activity at 3.75 µM is 102%. For the same molecule, in assay [2] (Well no.=821, low concentration screen), the remaining activity at 1.25 µM is 105%.
Turning to `COC1=C(OC)C(=O)C(CCCCCCCCCCO)=C(C)C1=O` [Idebenone], the remaining activity at 3.75 µM in assay [1] (Well no.=1616, high concentration screen) is 99.2%; in assay [1] (Well no.=3859, high concentration screen), 105%. Besides, the remaining activity at 1.25 µM was found to be 103% in assay [2] (Well no.=1616, low concentration screen) and 104% in assay [2] (Well no.=3859, low concentration screen).
As to `O=c1[nH]c(=O)n([C@H]2C[C@H](O)[C@@H](CO)O2)cc1I` [Idoxuridine], the remaining activity at 3.75 µM in assay [1] (Well no.=2218, high concentration screen) was 102%; in assay [1] (Well no.=8851, high concentration screen), 107%. The remaining activity at 1.25 µM in assay [2] (Well no.=2218, low concentration screen) was 98.6%; in assay [2] (Well no.=8851, low concentration screen) it was 105%.
Take `CC(C(O)c1ccc(O)cc1)N1CCC(Cc2ccccc2)CC1` (stereo not drawn) [Ifenprodil tartrate]: the remaining activity at 3.75 µM was found to be 103% in assay [1] (Well no.=867, high concentration screen) and 104% in assay [1] (Well no.=1685, high concentration screen). For the same molecule, the remaining activity at 1.25 µM was 103% in assay [2] (Well no.=867, low concentration screen) and 102% in assay [2] (Well no.=1685, low concentration screen).
Regarding `O=P1(NCCCl)OCCCN1CCCl` (stereo not drawn) [Ifosfamide], in assay [1] (Well no.=2220, high concentration screen), the remaining activity at 3.75 µM is 98.6%. In addition, the remaining activity at 1.25 µM in assay [2] (Well no.=2220, low concentration screen) came out at 97.2%.
Regarding `CC[C@H](C)[C@H](N)C(=O)N1CCC[C@H]1C(=O)N[C@H](C(=O)O)[C@@H](C)CC` [Ile-Pro-Ile], the remaining activity at 3.75 µM in assay [1] (Well no.=5849, high concentration screen) came out at 99.6%. In assay [2] (Well no.=5849, low concentration screen), the remaining activity at 1.25 µM came out at 100%.
Take `CNC(=O)[C@H](Cc1c[nH]c2ccccc12)NC(=O)[C@@H](CC(=O)NO)CC(C)C` [Ilomastat (GM6001, Galardin)]: the remaining activity at 3.75 µM in assay [1] (Well no.=9030, high concentration screen) was 94.4%. Moreover, in assay [2] (Well no.=9030, low concentration screen), the remaining activity at 1.25 µM turned out to be 101%.
In the case of `COc1cc(C(C)=O)ccc1OCCCN1CCC(c2noc3cc(F)ccc23)CC1` [Iloperidone], the remaining activity at 3.75 µM in assay [1] (Well no.=7333, high concentration screen) was found to be 91.9%. Moreover, the remaining activity at 1.25 µM in assay [2] (Well no.=7333, low concentration screen) was found to be 102%.
